From patent publication US9157102B2, “Over-expression of NADH-dependent oxidoreductase (fucO) for increasing furfural or 5-hydroxymethylfurfural tolerance” (UNIVERSITY OF FLORIDA RESEARCH FOUNDATION, INCORPORATED, priority 2011, dated 2015)
In brackets after ≈: the same amount, converted by molar mass. Like-named read-outs stand apart in the source and are kept apart here.

Key:
FucO [1] = biological target: T1, FucO (Escherichia coli, UniProt P0A9S1); test: NADH-/NADPH-dependent furan reduction by purified his-tagged FucO; assay type: biochemical; details: for NADPH-dependent reductase activity: purified enzyme, NADPH as cofactor
T1 construct: The FucO coding region was cloned into pET15b to produce pLOI4322; made in house; host or cells: E. coli BL21(λDE3) carrying pLOI4322
T1 sequence (P0A9S1 1-382): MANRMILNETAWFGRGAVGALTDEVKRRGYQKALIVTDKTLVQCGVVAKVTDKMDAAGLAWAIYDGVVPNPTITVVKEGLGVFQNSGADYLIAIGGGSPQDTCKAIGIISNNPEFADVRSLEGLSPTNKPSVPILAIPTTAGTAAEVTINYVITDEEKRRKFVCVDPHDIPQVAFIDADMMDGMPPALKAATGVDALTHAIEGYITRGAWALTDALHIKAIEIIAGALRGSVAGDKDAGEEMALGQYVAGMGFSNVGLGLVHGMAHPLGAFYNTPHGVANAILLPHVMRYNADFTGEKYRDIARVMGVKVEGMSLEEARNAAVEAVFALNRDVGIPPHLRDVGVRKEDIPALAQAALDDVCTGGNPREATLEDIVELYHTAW
Procedure: (§1) Cultures were grown overnight to a cell density of approximately 0.66 mg dew ml^−1 (37° C.) in closed tubes containing 20 ml AM1 (50 g liter^−1 xylose, 0.1 mM IPTG and 12.5 mg liter^−1 ampicillin). Cells were harvested by centrifugation (7,000 g for 5 min, 4° C.), washed twice with 10 ml of cold sodium phosphate buffer (50 mM pH 7.0), resuspended to a cell density of 4.4 mg dew ml^−1, and disrupted in buffer containing 1 mM dithiothreitol using a Fastprep-24 (MP Biomedicals, Solon, Ohio). After clarification at 13,000 g (10 min, 4° C.), protein concentration was determined using a BCA™ Protein Assay Kit (Thermo Scientific, Rockford, Ill.). Furfural-dependent reduction was measured using NADH and NADPH by monitoring the decrease in absorbance at 340 nm (extinction coefficient of NADH of 6,220 M^−1 cm^−1; extinction coefficient of NADPH of […]). Reaction mixtures contained 200 mM phosphate buffer (pH 7.0), 10 mM furfural, and 0.2 mM NADH or NADPH. NADH-dependent and NADPH-dependent reduction of 5-HMF (10 mM) was measured in a similar fashion.
(§2) For the purification of his-tagged FucO, BL21(pLOI4322) was grown in Luria broth at 37° C. When the culture density reached 0.35 g dew liter^−1, IPTG (0.1 mM) was added to induce overexpression. After incubation for 4 h, cells were harvested (7,000 g for 5 min, 4° C.), washed once with 10 mM Tris-HCl (pH 7.1), and lysed using a French pressure cell. After clarification at 30,000 g (1 h, 4° C.), crude extracts were passed through a 0.22 μm polyvinylidene fluoride (PVDF) filter, and further purified using a 1-ml HiTrap™ nickel column (GE Healthcare, Piscataway, N.J.). Purified enzyme was dialyzed in 100 mM phosphate buffer using a Thermo Slide-A-Lyzer and quantified using the BCA™ Protein Assay Kit (Thermo Scientific, Rockford, Ill.).

FucO [2] = biological target: T1, FucO; details: native substrate, reference (6); cited from earlier work
YqhD = YqhD (Escherichia coli, UniProt Q46856); details: cited from earlier work
LY180(pTrc99A) = test: Furfural toxicity in tube cultures, vector control; assay type: cell-based; details: Escherichia coli, 48 h, read-out: minimum inhibitory concentration
Procedure: (§3) Furfural toxicity was measured in tube cultures (13 mm by 100 mm) containing 4 ml of AM1 medium with 50 g xylose, 12.5 mg liter^−1 ampicillin, furfural, and other supplements as indicated (28, 29). Cultures were inoculated to an initial density of […] (0.1 mM) was included for fucO induction. Cell mass was measured at 550 nm after incubation for 48 h (37° C.).

LY180(pLOI4319) = test: Furfural toxicity in tube cultures, IPTG-induced fucO; assay type: cell-based; details: Escherichia coli; AM1 medium, xylose, 48 h, 37° C., 0.1 mM IPTG-induced fucO; read-out: minimum inhibitory concentration
Procedure: as §3

[3] = substrate: O=Cc1ccc(CO)o1; test: NADH-/NADPH-dependent furan reduction by purified his-tagged FucO; assay type: biochemical, Escherichia coli; details: other: substrate of purified his-tagged FucO, NADH-specific reduction; 37.0 °C
Procedure: as §1, §2

[4] = substrate: O=Cc1ccco1; test: as above; assay type: biochemical, Escherichia coli; details: other: substrate of purified his-tagged FucO, NADH-specific reduction; 37.0 °C
Procedure: as §1, §2

Chain of YqhD (Q46856 whole entry): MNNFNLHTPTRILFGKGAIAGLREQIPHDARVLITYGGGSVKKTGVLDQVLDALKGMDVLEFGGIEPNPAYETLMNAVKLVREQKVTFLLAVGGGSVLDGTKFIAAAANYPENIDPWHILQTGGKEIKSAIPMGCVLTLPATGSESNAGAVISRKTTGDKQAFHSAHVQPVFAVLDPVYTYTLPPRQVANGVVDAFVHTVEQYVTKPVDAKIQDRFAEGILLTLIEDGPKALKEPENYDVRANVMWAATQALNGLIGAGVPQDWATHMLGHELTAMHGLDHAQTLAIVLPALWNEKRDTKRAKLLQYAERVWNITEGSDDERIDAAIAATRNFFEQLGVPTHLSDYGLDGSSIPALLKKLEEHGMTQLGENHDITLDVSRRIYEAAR

**Q.** Which NADPH-dependent reductase activity (FucO [1]) does the source give for O=Cc1ccc(CO)o1 [5-HMF, 5-hydroxymethylfurfural] here?
**A.** No NADPH-dependent furfural or 5-HMF reductase activity

**Q.** What does the source list for C[C@H](O)C=O [L-lactaldehyde]?
**A.** Km (FucO [2]): 0.035 mM; Vmax (FucO [2]): 20 μmol min^−1 mg protein^−1

**Q.** Which Km (YqhD; read-out: Km for NADPH) does the source give for NC(=O)C1=CN([C@@H]2O[C@H](COP(=O)(O)OP(=O)(O)OC[C@H]3O[C@@H](n4cnc5c(N)ncnc54)[C@H](OP(=O)(O)O)[C@@H]3O)[C@@H](O)[C@H]2O)C=CC1 [NADPH] here?
**A.** 0.008 mM

**Q.** Which results are given for O=Cc1ccco1 [furfural]?
**A.** Vmax relative to that for L-lactaldehyde (FucO [1]; FucO): 10%; NADPH-dependent reductase activity (FucO [1]): No NADPH-dependent furfural or 5-HMF reductase activity; MIC (LY180(pTrc99A)): 10 mM (≈ 961 µg/mL); MIC (LY180(pLOI4319)): 15 mM (≈ 1440 µg/mL); Km (YqhD; reference (29), read-out: Km for furfural): 9 mM

B1: FucO (Escherichia coli K-12) (protein)
chain: MANRMILNETAWFGRGAVGALTDEVKRRGYQKALIVTDKTLVQCGVVAKVTDKMDAAGLAWAIYDGVVPNPTITVVKEGLGVFQNSGADYLIAIGGGSPQDTCKAIGIISNNPEFADVRSLEGLSPTNKPSVPILAIPTTAGTAAEVTINYVITDEEKRRKFVCVDPHDIPQVAFIDADMMDGMPPALKAATGVDALTHAIEGYITRGAWALTDALHIKAIEIIAGALRGSVAGDKDAGEEMALGQYVAGMGFSNVGLGLVHGMAHPLGAFYNTPHGVANAILLPHVMRYNADFTGEKYRDIARVMGVKVEGMSLEEARNAAVEAVFALNRDVGIPPHLRDVGVRKEDIPALAQAALDDVCTGGNPREATLEDIVELYHTAW
notes: The FucO coding region was cloned into pET15b to produce pLOI4322; made in house; host or cells: E. coli BL21(λDE3) carrying pLOI4322
**Q.** Which Km [3] does the source give for B1 here?
**A.** 0.7 ± 0.3 mM

**Q.** What about the Vmax [3] of the same molecule?
**A.** 0.30±0.05 mmol min^−1 mg protein^−1

**Q.** What about the Km [4] of the same molecule?
**A.** 0.4 ± 0.2 mM

**Q.** What about the Vmax [4] of the same molecule?
**A.** 1.9±0.4 mmol min^−1 mg protein^−1
